Measurements reported in patent US6869929B2, “Use of transcription factors for treating inflammation and other diseases” (Beth Israel Deaconess Medical Center, priority 2000, dated 2005).

How the values were obtained:
[1] = test system: NOS2 promoter; experiment: ESE-1 transactivation of NOS2 promoter luciferase reporter, cotransfection in RAW cells; assay type: cell-based, murine; conditions: cotransfection with NOS2 promoter
Method: (§1) A 1516 and 265 bp fragment corresponding to nucleotides (−1485 to +31) and (−234 to +31) of the murine NOS2 gene promoter were subcloned into the PGL2 luciferase reporter(Promega).
(§2) Co-transfections of 2×10^5 RAW cells or RASMCs were carried out with 0.6 μg reporter gene construct DNA and 0.6 μg expression vector DNA using 6 μl lipofectamine (Gibco-BRL) as described (Oettgen, P., et al. 1996. Characterization of NERF, a novel transcription factor related to the Ets factor ELF-1. Mol Cell Biol 16:5091-106). The cells were harvested 16 hours after transfection and assayed for luciferase activity. Transfections for every construct were performed independently in duplicates and repeated 3 times with two different plasmid preparations with similar results. Cotransfection of a second plasmid for determination of transfection efficiency was omitted because potential artifacts with this technique have been reported and because many commonly used viral promoters contain potential binding sites for ets factors (Farr, A., and A. Roman. 1992. A pitfall of using a second plasmid to determine transfection efficiency. Nucleic Acids Res 20:920).
The ability of ESE-1 DN 1 to block transactivation of the NOS2 promoter was tested in RAW cells. Cotransfection of ESE-1 with the NOS2 promoter led to an approximate 12-fold increase in transactivation. […]

[2] = test system: COL2A1 promoter; experiment: COL2A1 promoter/intron deletion constructs, transient transfection in C-28/I2 cells; assay type: cell-based, human
Method: (§3) The COL2A1 sequence spanning −577 to +3428 bp (Goldring M B, et al, J Cell Biochem 1994;54:85-99, 39) was cloned into the pGL2-basic (pGL2B) luciferase reporter gene vector (Promega,) and named pGL2-COL2/4.0. Deletion constructs containing −577/+125 bp, −131/+125 bp, −87/+125 bp were prepared by enzyme digestion of pGL2-COL2/4.0 using PstI, ApaI, and PuuII, followed by ligation. For the deletion constructs −45/+125 bp, −83/+7 bp, and −45/+7 bp, PCR products were generated as described (Osaki et al.) and cloned into the pGL2-Basic luciferase vector. These reporter constructs were used as templates to generate point mutations or internal deletions by PCR mutagenesis employing the oligonucleotides listed in FIG. 16 and the QuikChange™ Site-Directed Mutagenesis Kit (Stratagene, La Jolla, Calif.). DNA fragments containing point mutations were then cloned into the pGL2B vector and confirmed by DNA sequencing using a G2 primer on pGL2 DNA. Deletions were also made in the −577/+127 bp COL2A1 promoter construct using the ExSite™ PCR-Based Site-Directed Mutagenesis Kit (Stratagene).
Transient transfection experiments were carried out in C-28/I2 cells using LipofectAMINE PLUS™ Reagent (Life Technologies). Cells were seeded in 6-well tissue culture plates at 3.5×10^5 cells/well in DMEM/F12 containing 10% FCS 24 h prior to transfection. For each well, 1 μg of COL2A1-luciferase construct, 6 μl of PLUS reagent and 92 μl of serum-free DMEM/F12 were mixed and incubated for 15 min at room temperature. LipofectAMINE+ reagent (4 μl) in 100 μl of serum-free medium was then added to each reaction mixture and incubation was continued for an additional 30 min at room temperature. Finally, the transfection mixture was combined with 800 μl of serum-free medium and the lipid-nucleic acid complex was transferred to the washed cell monolayer in each well. After incubation for 4 h at 37° C., the transfection mix was diluted with an equal volume of DMEM/F12 containing 2% Nutridoma-SP, and incubation continued for 18 h in the absence or presence of IL-1β. […] Cell lysates were prepared by extraction with 200 μl of Reporter Lysis Buffer (Promega) and the protein content was determined using the Coomassie Plus Protein Assay Reagent (PIERCE). Luciferase activities were determined by chemiluminescence assay using the Autolumat LB953 luminometer (EG&G Berthold, Oak Ridge, Tenn.), normalized to the amount of protein. Each data point was calculated as the mean±standard deviation for three independently transfected cultures from one representative of at least three experiments. […]
To localize the responses to IL-1β and ESE-1 in the COL2A1 promoter, we made several 5′-deletions of the −577/+127 bp promoter construct, which we had previously determined to be responsive to IL-1β.

[3] = test system: COL2A1 promoter; experiment: COL2A1 promoter luciferase cotransfection in T/C-28a2 cells; assay type: cell-based, human; conditions: T/C-28a2; pGL3 construct; highest concentrations tested
Method: as §3
Transient transfection experiments were carried out in C-28/I2 cells using LipofectAMINE PLUS™ Reagent (Life Technologies). Cells were seeded in 6-well tissue culture plates at 3.5×10^5 cells/well in DMEM/F12 containing 10% FCS 24 h prior to transfection. For each well, 1 μg of COL2A1-luciferase construct, 6 μl of PLUS reagent and 92 μl of serum-free DMEM/F12 were mixed and incubated for 15 min at room temperature. LipofectAMINE+ reagent (4 μl) in 100 μl of serum-free medium was then added to each reaction mixture and incubation was continued for an additional 30 min at room temperature. Finally, the transfection mixture was combined with 800 μl of serum-free medium and the lipid-nucleic acid complex was transferred to the washed cell monolayer in each well. After incubation for 4 h at 37° C., the transfection mix was diluted with an equal volume of DMEM/F12 containing 2% Nutridoma-SP, and incubation continued for 18 h in the absence or presence of IL-1β. For cotransfections, the cells were incubated for 24 h to permit expression of recombinant proteins prior to treatment with IL-1β for a further 18 h. Cell lysates were prepared by extraction with 200 μl of Reporter Lysis Buffer (Promega) and the protein content was determined using the Coomassie Plus Protein Assay Reagent (PIERCE). Luciferase activities were determined by chemiluminescence assay using the Autolumat LB953 luminometer (EG&G Berthold, Oak Ridge, Tenn.), normalized to the amount of protein. Each data point was calculated as the mean±standard deviation for three independently transfected cultures from one representative of at least three experiments. […]

[4] = test system: ICAM-2 promoter; experiment: Cotransfection of ESE-1 with luciferase reporter constructs of potential target genes; assay type: cell-based; conditions: cotransfection of expression plasmid with luciferase reporter
Method: as §2
In an attempt to identify target genes for ESE-1, the ability of ESE-1 to transactivate the promoters of several genes that are induced in response to inflammatory stimuli were tested. […] Transactivation of the ICAM-2 promoter by ESE-1 led to a 3.5 fold induction. […] The NOS2 gene promoter has two important regulatory regions, one that is upstream (−1100 to −800) and one that is in the more proximal promoter (−234 to +31). […]

[5] = test system: COX-2 promoter; experiment: COX-2 promoter luciferase construct (pXP2/COX-2) in RAW 264.7 cells; assay type: cell-based, human; conditions: luciferase 16 h
Method: Full-length and dominant-negative mutant ESE-1 cDNAs were inserted into the pCI (Promega) eukaryotic expression vector as described (Oettgen, P., et al. et al. 1997, Mol Cell Biol 17:4419-33). The human COX-2 promoter spanning −170 to +103, kindly provided by Dr. Leslie J. Crofford, University of Michigan, (14) was cloned into the pXP2 luciferase vector (pXP2/COX-2).
(§4) Cotransfections of 3-8×10^5 cells were carried out with 600 ng reporter gene construct DNA and 200 ng expression vector DNA using LipofectAMINE PLUS (Gibco-BRL) for 16 hours as described (Oettgen, P., et al. et al., 1997, Mol Cell Biol 17:4419-33). Transfections were performed independently in duplicate and repeated 3 to 4 times with different plasmid preparations with similar results.
We were interested to know which genes that are associated with inflammatory responses are targeted by ESE-1. We focused on the COX-2 gene, an important target for IL-1β, TNF-α, and LPS in inflammation. Furthermore, the COX-2 promoter contains multiple putative Ets binding sites that are potential targets for ESE-1. A COX-2 promoter luciferase construct, pXP2/COX-2, was transfected into RAW 264.7 cells in the absence or presence of the ESE-1 expression vector, pCI/ESE-1. ESE-1 enhanced COX-2 promoter activity more than 10-fold (FIG. 13a). […]

[6] = test system: NOS2 promoter; experiment: LPS (endotoxin) induction of NOS2 promoter luciferase reporter in RAW cells; assay type: cell-based, murine; conditions: response to endotoxin (LPS)
Method: as §1, §2
In the presence of LPS, the ESE-1 DN1 protein blocked induction of the NOS2 promoter by LPS by approximately 70-75%. (See FIG. 21C).

[7] = test system: ESE-1 promoter; experiment: ESE-1 promoter luciferase construct (pXP2/ESE-1) transfection; assay type: cell-based, human; conditions: RAW 264.7 cells; 16 h
Method: as §4
To investigate the molecular mechanism by which IL-1 β and LPS regulate ESE-1 expression, we examined the response of an ESE-1 promoter luciferase construct after transfection using two cytokine responsive non-epithelial cell types, U-138 MG human glial cells and RAW 264.7 cells, a murine macrophage cell line (Oettgen, P., et al. 1999, Genomics 55:358-62). Whereas the parental pXP2 vector was not stimulated by IL-1β, in U-138 MG cells, IL-1β increased ESE-1 promoter activity up to 5-fold (FIG. 12a). Similarly, LPS enhanced ESE-1 promoter activity ˜9-fold in RAW 264.7 cells (FIG. 12b).

[8] = test system: ESE-1; experiment: ESE-1 mRNA RT-PCR in THP-1 monocytic cells; assay type: cell-based, human; conditions: THP-1 cells; within one hour
Method: U-87 Mg and U-138 Mg (human glioma), THP-1 (human monocytic), RAW 264.7 (murine monocytic), LB-12 (human osteoblast-like large T antigen transformed bone marrow stromal cells), and human chondrocytes were grown and treated with cytokines as described (Apperley, J., et al. 1990. J Bone Mineral Res. 5:S93; Goldring, M. B., et al. 1994. J Clin Invest 94:2307-16; Goldring, S. R., et al. 1983. J Bone Joint Surg 65:575-84; Libermann, T. A., et al. 1987. Embo J. 6:1627-1632).
cDNAs were generated from 1 μg of total RNA using Ready-To-Go™ You-prime First-Strand Beads (Amersham Pharmacia Biotech Inc). RT-PCR amplifications of 0.1 μg cDNA were carried out using a MJResearch thermal cycler PTC-100 as follows: 5 min at 94° C., 20-37 cycles of 30 sec at 94° C., 30 sec at 56° C., and 30 sec at 72° C., followed by 5 min at 72° C. (Oettgen, P., et al. 2000, J Biol Chem 275:1216-25). The sequences of the human ESE-1 primers and the primers for human GAPDH were as described (Oettgen, P., et al. 1999, J Biol Chem 274:29439-52).
Macrophages represent an additional cell type present within RA synovial tissues and are a major target of bacterial endotoxin. We, therefore, examined the effects of lipopolysaccharide (LPS) on ESE-1 expression in monocytes using the human monocytic cell line, THP-1 (FIG. 11e).

Substance	increase in transactivation of the NOS2 promoter [1]	response of -131/+127 and -83/+127 bp constructs [2]	inhibition of -577/+127, -530/+127, -403/+127 bp constructs ([2]; 200 ng, highest amount)	increased expression of pGL2P+2370/+2672 and pGL2B-28/+2122 constructs ([2]; overexpression)	inhibition of COL2A1/4.0 activity [3]	induction of the ICAM-2 promoter [4]	induction of COX-2 promoter activity [5]	increase in NOS2 promoter activity [6]	increase in ESE-1 promoter activity [7]	ESE-1 expression [8]
ESE-1: full-length Ets transcription factor ESE-1 overexpressed from the pCI expression vector	~12 fold	did not respond	levels of inhibition similar to IL-1β	~10 fold	20%	3.5 fold	more than 10 fold	–	–	–
lipopolysaccharide [LPS]	–	–	–	–	–	–	more than 20 fold	~14 fold	~9 fold	induced ESE-1 expression
